In US20250074873A1, “COMPOUNDS” (Psylo Pty Ltd, priority 2021, published 2025):
Read-outs that look alike come from different tables or passages of the source.

Experiments:
Type in all cases: cell-based
5-HT2B receptor = target: T1, 5-HT2B receptor (Homo sapiens, UniProt P41595); experiment: FLIPR Ca2+ flux functional assay, 5-HT2B agonist activity
T1 construct: host or cells: CHO-K1
Protocol: (§1) Functional Assays 5-HT2A, 5-HT2B and 5-HT2C Receptors
(§2) Activity at 5-HT2A, 5-HT2B and 5-HT2C receptors was determined using a FLIPR Ca2+ flux assay at WuXi AppTec Co. Ltd. (Hong Kong) Discovery Biology Unit according to their standard protocols. Briefly, stably transfected cells expressing the receptor of interest (HEK293 for 5-HT2A and 5-HT2C; CHO-K1 for 5-HT2B) were grown and plated in a 384 well plate and incubated at 37° C. and 5% 002 overnight. A 250 mM stock solution of probenecid in FLIPR calcium assay buffer (10 mL) was freshly prepared and combined with a fluorescent dye (Fluo-4 Direct) to give a final assay concentration of 2.5 mM. Reference compounds were 4-fold serially diluted and the screening compounds were 3-fold serially diluted in 100% DMSO for 10 points using Agilent Bravo, and 750 nL was added to a 384 well compound plate using Echo along with 30 μL assay buffer. The fluorescent dye was then added to the assay plate along with assay buffer to a final volume of 40 μL. The cell plate was incubated for […] at 37° C. and 5% 002 and placed into the FLIPR Tetra along with the compound plate. 10 μL of references and compounds were then transferred from the compound plate into the cell plate and the fluorescent signal was read.

5-HT2A receptor = target: T2, 5-HT2A receptor (Homo sapiens, UniProt P28223); experiment: FLIPR Ca2+ flux functional assay, 5-HT2A agonist activity
T2 construct: host or cells: HEK293
Protocol: as §1, §2

5-HT2C receptor = target: T3, 5-HT2C receptor (Homo sapiens, UniProt P28335); experiment: FLIPR Ca2+ flux functional assay, 5-HT2C agonist activity
T3 construct: host or cells: HEK293
T3 sequence (P28335 33-458): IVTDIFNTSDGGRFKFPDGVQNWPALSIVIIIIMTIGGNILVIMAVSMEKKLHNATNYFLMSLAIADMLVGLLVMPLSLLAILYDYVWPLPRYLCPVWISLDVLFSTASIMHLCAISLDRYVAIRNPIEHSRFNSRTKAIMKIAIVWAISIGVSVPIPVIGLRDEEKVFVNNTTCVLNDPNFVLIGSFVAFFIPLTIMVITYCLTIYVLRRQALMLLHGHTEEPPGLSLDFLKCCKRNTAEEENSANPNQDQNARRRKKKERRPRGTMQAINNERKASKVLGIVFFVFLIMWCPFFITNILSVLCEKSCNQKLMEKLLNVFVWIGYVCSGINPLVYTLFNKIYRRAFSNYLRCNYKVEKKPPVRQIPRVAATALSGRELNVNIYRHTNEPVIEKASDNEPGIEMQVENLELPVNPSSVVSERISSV
Protocol: as §1, §2

[1] = agonist activity, Ca2+ flux, stably transfected CHO-K1 cells
[2] = agonist activity, Ca2+ flux, stably transfected HEK293 cells

T2 sequence (P28223 whole entry): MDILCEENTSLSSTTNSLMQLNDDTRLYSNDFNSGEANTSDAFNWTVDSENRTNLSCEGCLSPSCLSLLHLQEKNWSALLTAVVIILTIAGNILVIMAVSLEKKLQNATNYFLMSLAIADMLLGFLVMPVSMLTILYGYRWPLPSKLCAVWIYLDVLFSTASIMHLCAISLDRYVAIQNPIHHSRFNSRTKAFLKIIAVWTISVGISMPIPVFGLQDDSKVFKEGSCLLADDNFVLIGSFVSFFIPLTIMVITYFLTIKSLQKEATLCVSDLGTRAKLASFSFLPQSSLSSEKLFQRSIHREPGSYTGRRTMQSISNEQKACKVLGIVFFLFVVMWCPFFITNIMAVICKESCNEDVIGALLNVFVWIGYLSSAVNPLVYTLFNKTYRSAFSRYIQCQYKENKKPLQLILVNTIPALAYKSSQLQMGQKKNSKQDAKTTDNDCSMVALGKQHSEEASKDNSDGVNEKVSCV
T1 sequence (P41595 whole entry): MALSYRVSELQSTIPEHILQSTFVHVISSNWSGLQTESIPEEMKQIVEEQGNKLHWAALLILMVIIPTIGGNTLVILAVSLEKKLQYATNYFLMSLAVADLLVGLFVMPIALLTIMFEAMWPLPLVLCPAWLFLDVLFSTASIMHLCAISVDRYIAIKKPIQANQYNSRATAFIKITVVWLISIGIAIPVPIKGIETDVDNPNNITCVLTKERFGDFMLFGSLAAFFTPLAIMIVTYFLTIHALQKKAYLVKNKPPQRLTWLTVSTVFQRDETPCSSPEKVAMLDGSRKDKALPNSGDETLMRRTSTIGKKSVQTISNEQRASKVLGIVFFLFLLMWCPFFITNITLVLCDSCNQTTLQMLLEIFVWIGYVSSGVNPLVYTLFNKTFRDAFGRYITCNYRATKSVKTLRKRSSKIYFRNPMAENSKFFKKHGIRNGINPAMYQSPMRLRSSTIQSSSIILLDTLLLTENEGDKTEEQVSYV

Structure (SMILES) | EC50 (5-HT2B receptor) [nM] | Emax (5-HT2B receptor; [1]) [%] | EC50 (5-HT2A receptor) [nM] | Emax (5-HT2A receptor; [2]) [%] | EC50 (5-HT2C receptor) [nM] | Emax (5-HT2C receptor; [2]) [%] | EC50 (5-HT2B receptor; agonist activity, Ca2+ flux, stably transfected CHO-K1 cells, read-out: 5-HT2B EC50) [nM] | EC50 (5-HT2A receptor; agonist activity, Ca2+ flux, stably transfected HEK293 cells, read-out: 5-HT2A EC50) [nM] | EC50 (5-HT2C receptor; agonist activity, Ca2+ flux, stably transfected HEK293 cells, read-out: 5-HT2c EC50) [nM]
COc1ccc2[nH]cc(CCN(C)C3CCC3)c2c1 [Compound P-163, N-(2-(5-methoxy-1H-indol-3-yl)ethyl)-N-methylcyclobutanamine] | ≥ 10000 | 2.29 | 25.4 | 90.5 | 128 | 75.9 | – | – | –
CCN(CCc1c[nH]c2ccccc12)CC(C)C [Compound P-22, N-(2-(1H-indol-3-yl)ethyl)-N-ethyl-2-methylpropan-1-amine] | 1140 | 28 | 389 | 52.8 | 960 | 58.4 | – | – | –
CN(C)CCc1c[nH]c2cccc(OC(F)(F)F)c12 [Compound P-4, N,N-dimethyl-2-(4-(trifluoromethoxy)-1H-indol-3-yl)ethan-1-amine] | > 10000 | -0.97 | 52.8 | 34.6 | 15.9 | 66.6 | – | – | –
CCCN(CCc1c[nH]c2ccc(OC)cc12)C(C)C [Compound P-17, N-isopropyl-N-(2-(5-methoxy-1H-indol-3-yl)ethyl)propan-1-amine] | 138 | 69.2 | 13.8 | 89 | 185 | 82.1 | – | – | –
CCN(CCc1c[nH]c2cccc(O)c12)CC(C)C [Compound P-140, 3-(2-(ethyl(isobutyl)amino)ethyl)-1H-indol-4-ol] | > 10000 | 17.5 | 27.7 | 97.5 | 992 | 95.4 | – | – | –
COc1ccc2[nH]cc(CCN(C)C3COC3)c2c1 [Compound P-164, N-(2-(5-methoxy-1H-indol-3-yl)ethyl)-N-methyloxetan-3-amine] | – | 1.26 | – | 57.5 | – | 59.9 | ≥ 10000 | 671 | 6280
CCC(C)N(C)CCc1c[nH]c2ccccc12 (stereo not drawn) [Compound P-20, N-(2-(1H-indol-3-yl)ethyl)-N-methylbutan-2-amine] | > 10000 | 0.83 | 91.2 | 16.1 | 646 | 58.8 | – | – | –
CCN(CCc1c[nH]c2cccc(O)c12)C(C)C [Compound P-138, 3-(2-(ethyl(isopropyl)amino)ethyl)-1H-indol-4-ol] | 322 | 53.5 | 19.9 | 105 | 862 | 83.3 | – | – | –
CCC(C)N(CC)CCc1c[nH]c2ccc(OC)cc12 (stereo not drawn) [Compound P-19, N-ethyl-N-(2-(5-methoxy-1H-indol-3-yl)ethyl)butan-2-amine] | 1400 | 44.5 | 33.3 | 70.3 | 933 | 76.8 | – | – | –
CCC(C)N(C)CCc1c[nH]c2cccc(OC)c12 (stereo not drawn) [Compound P-23, N-(2-(4-methoxy-1H-indol-3-yl)ethyl)-N-methylbutan-2-amine] | > 10000 | -0.21 | 124 | 50.3 | 465 | 21.7 | – | – | –
CCCN(CCc1c[nH]c2cccc(O)c12)C(C)C [Compound P-141, 3-(2-(isopropyl(propyl)amino)ethyl)-1H-indol-4-ol] | 330 | 62.2 | 13.8 | 105 | 422 | 92 | – | – | –
CCCN(C)CCc1c[nH]c2ccc(OC(F)(F)F)cc12 [Compound P-34, N-methyl-N-(2-(5-(trifluoromethoxy)-1H-indol-3-yl)ethyl)propan-1-amine] | > 10000 | 18.9 | 665 | 53.7 | 329 | 81.7 | – | – | –
CCN(CCc1c[nH]c2cccc(OC)c12)CC(C)C [Compound P-137, N-ethyl-N-(2-(4-methoxy-1H-indol-3-yl)ethyl)-2-methylpropan-1-amine] | > 10000 | 19.4 | 85.6 | 95.8 | 138 | 96.2 | – | – | –
CCC(C)N(CC)CCc1c[nH]c2cccc(O)c12 (stereo not drawn) [Compound P-139, 3-(2-(sec-butyl(ethyl)amino)ethyl)-1H-indol-4-ol] | > 10000 | 15.7 | 54 | 107 | 1900 | 55.2 | – | – | –
CCCN(CCc1c[nH]c2cccc(OC)c12)C(C)C [Compound P-26, N-isopropyl-N-(2-(4-methoxy-1H-indol-3-yl)ethyl)propan-1-amine] | 103 | 96 | 36.5 | 81.6 | 106 | 87.1 | – | – | –
CCN(CCc1c[nH]c2cccc(OC)c12)C(C)C [Compound P-25, N-ethyl-N-(2-(4-methoxy-1H-indol-3-yl)ethyl)propan-2-amine] | 459 | 61.4 | 121 | 85.9 | 676 | 77.8 | – | – | –
CCC(C)N(CC)CCc1c[nH]c2cccc(OC)c12 (stereo not drawn) [Compound P-24, N-ethyl-N-(2-(4-methoxy-1H-indol-3-yl)ethyl)butan-2-amine] | 444 | 52.6 | 70.2 | 77.7 | 964 | 68.6 | – | – | –
CN(C)CCc1c[nH]c2ccc(C(F)(F)F)cc12 [Compound P-15, N,N-dimethyl-2-(5-(trifluoromethyl)-1H-indol-3-yl)ethan-1-amine] | > 10000 | 7.41 | 186 | 28.7 | 89.7 | 88.8 | – | – | –
CN(C)CCc1c[nH]c2ccc(OC(F)(F)F)cc12 [Compound P-5, N,N-dimethyl-2-(5-(trifluoromethoxy)-1H-indol-3-yl)ethan-1-amine] | > 10000 | -0.27 | 171 | 40.5 | 520 | 55.1 | – | – | –
CCN(CCc1c[nH]c2ccc(OC)cc12)CC(C)C [Compound P-18, N-ethyl-N-(2-(5-methoxy-1H-indol-3-yl)ethyl)-2-methylpropan-1-amine] | 867 | 51.8 | 47.9 | 79.5 | 1130 | 68.9 | – | – | –
COc1cccc2[nH]cc(CCN(C)CC(C)C)c12 [Compound P-136, N-(2-(4-methoxy-1H-indol-3-yl)ethyl)-N,2-dimethylpropan-1-amine] | > 10000 | -1.63 | 91.5 | 100 | 261 | 78.5 | – | – | –
CCC(C)N(C)CCc1c[nH]c2ccc(OC)cc12 (stereo not drawn) [Compound P-16, N-(2-(5-methoxy-1H-indol-3-yl)ethyl)-N-methylbutan-2-amine] | > 10000 | -1.2 | 36.9 | 58.5 | 553 | 59.5 | – | – | –
CCC(C)N(CC)CCc1c[nH]c2ccccc12 (stereo not drawn) [Compound P-21, N-(2-(1H-indol-3-yl)ethyl)-N-ethylbutan-2-amine] | > 10000 | 37.2 | 148 | 71.5 | 974 | 61.5 | – | – | –
COc1ccc2[nH]cc(CCN(C)C3CC3)c2c1 [Compound P-162, N-(2-(5-methoxy-1H-indol-3-yl)ethyl)-N-methylcyclopropanamine] | ≥ 10000 | 12 | 4.83 | 95.6 | 10.6 | 89.2 | – | – | –
Cc1cccc2[nH]cc(CCN(C)C(C)C)c12 [Compound P-42, N-methyl-N-(2-(4-methyl-1H-indol-3-yl)ethyl)propan-2-amine] | 814 | 41.4 | 39.6 | 94.7 | 48.6 | 91.2 | – | – | –
